Experimental data: US6479079B1, “Anticalcification treatments for fixed biomaterials” (Sulzer Carbomedics Inc., priority 1999, dated 2002)

Legend:
[1] = test system: glutaraldehyde-fixed bovine pericardium tissue; assay: Calcium and phosphorus content after subcutaneous implantation in rats (Examples 2 and 3); assay type: in vivo, Sprague-Dawley rats; conditions: for Calcuim / Phosphorus: Bovine Pericardium, 60 days of implantation
Method: (§1) In a sterile hood, pieces of glutaraldehyde-fixed bovine pericardium tissue (Mitroflow Inc.; Richmond, British Columbia, Canada) porcine cusp tissue (Labcor; Belo Horizonte, Brazil) and porcine wall tissue (Labcor Inc.) were transferred into sterile tubes containing 1,2-octanediol solutions (5% […] (Aldrich Chemical), 40% ethanol and 55% 10 mM HEPES buffer). The tubes were transferred to a 37° C. incubator and maintained at 37° C. with gentle agitation for about 16 hours. After the treatment, the samples were transferred to solutions comprising 22% ethanol in 10 mM HEPES and stored for 14 days at 4° C. The final tissue to volume ratio for all treatments was approximately 27 ml/g.
(§2) For N-methyl pyrolidinone (NMP) treatments, pieces of glutaraldehyde-fixed bovine pericardium tissue (Mitroflow Inc.), porcine cusp tissue (Labcor Inc.) and porcine wall tissue (Labcor Inc.) were transferred into sterile tubes containing NMP. The tubes were incubated at room temperature for about 16 hours with occasional manual agitation. After the treatment, the tissue samples were transferred to 22% HEPES-buffered ethanol solutions and stored for 14 days at 4° C.
(§3) Samples treated with the 1,2-octanediol solutions and with NMP, as well as untreated samples of each tissue type, were provided to Charles Rivers Laboratories (Wilmington, Mass.) for implantation into rats. Seven rats per treatment group were analyzed. Prior to implantation, the tissue samples were rinsed for 3 minutes×3 in sterile PBS, accompanied by gentle agitation. The samples were implanted subcutaneously approximately 1 cm from the abdominal midline in 3 week old Sprague-Dawley rats and retrieved after 60 days of implantation. Unimplanted samples (one per tissue type per treatment) were used as unimplanted controls. After retrieval, the samples were analyzed for their calcium and phosphorus contents using a standard ICP methodology.
In a sterile hood, pieces of glutaraldehyde-fixed bovine pericardium tissue (Mitroflow Inc.) were transferred into sterile tubes containing a 45% solution of HEPES-buffered ethanol (45% ethanol, 55% 10 mM HEPES buffer). The tubes were transferred to a 37° C. incubator and maintained at 37° C. with gentle agitation for about 16 hours. After the treatment, the samples were transferred to fresh solution of 45% HEPES-buffered ethanol and stored for 14 days at room temperature (˜25° C.). The final tissue to volume ratio for all treatments was approximately 27 ml /g.
as §3, with “45% ethanol solution,” for “1,2-octanediol solutions and with NMP,”, “by ICP.” for “using a standard ICP methodology.”

[2] = test system: porcine cusp tissue; assay: Calcium and phosphorus content after subcutaneous implantation in rats (Example 2); assay type: in vivo, Sprague-Dawley rats; conditions: 60 days of implantation
Method: as §1, §2, §3

[3] = test system: porcine wall tissue; assay: as above; assay type: in vivo, Sprague-Dawley rats; conditions: 60 days of implantation
Method: as §1, §2, §3

[4] = test system: glutaraldehyde fixed bovine pericardium; assay: Calcification after subcutaneous implantation in rats (Example 1); assay type: in vivo, Sprague-Dawley rats; conditions: alcohol treatment 24 hrs, retrieved after 60 days
Method: Bovine pericardium was obtained fresh from the abattoir, trimmed to remove excess fat, and stored in a high osmolarity solution until use. Prior to fixation, the tissue was rinsed thoroughly in phosphate buffered saline (PBS) having a pH of 7.3-7.4. A 0.25% solution of glutaraldehyde was prepared by adding 2.5 ml of a 50% glutaraldehyde solution (Aldrich Chemical) to 500 ml using PBS. Fifteen 1 cm×1 cm samples of bovine pericardium tissue were added to the glutaraldehyde solution and the tube was stored at room temperature for 7 days.
In a sterile hood, glutaraldehyde fixed bovine pericardium pieces were washed with sterile PBS (3 washes, 10 minutes each). The samples were then immersed in a sterile filtered solution of 40% ethanol, 5% octanol, 55% water and treated for 24 hours at room temperature. The tissue was then washed with sterile PBS (3 washes, 10 minutes each), and in sterile filtered 45% ethanol in PBS for about 30 minutes. […]
The calcium content of the retrieved samples was determined by hydrolyzing the samples under acidic conditions and analyzing the digested samples using standard inductively coupled plasma (ICP) emission spectrophotometry. […] The resulting digested sample was diluted with water and analyzed using an ICP spectrophotometer (Varian Inc.; Liberty 100/200 ICP-OCS).

[5] = Shrinkage temperature by differential scanning calorimetric analysis; assay type: physicochemical, bovine
[6] = treated at 37° C. about 16 hours (Example 3)

Row | effect on shrinkage temperature compared with untreated tissue [5] | Shrink Temperature ([5]; glutaraldehyde 0.25% about 7 days, then post-fixation treatment) [°C] | Structure (SMILES) | Calcuim [1] [μg/mg tissue] | Phosphorus [1] [μg/mg tissue] | Calcuim [2] [μg/mg tissue] | Phosphorus [2] [μg/mg tissue] | Calcuim [3] [μg/mg tissue] | Phosphorus [3] [μg/mg tissue] | Calcuim [1, 6] [μg/mg tissue] | Phosphorus [1, 6] [μg/mg tissue] | calcium and phosphorus levels compared with no anticalcification treatment ([1]; Example 3) | Calcium ([4]; glutaraldehyde 0.25%, 14 days (45% EtOH) or 7 days (octanol), ICP) [μg/mg dry tissue] | Average von Kossa Grading ([4]; graded from 0 (none) to 5 (severe)) | calcium and phosphorus levels of explanted tissues ([1]; all tissue types, most pronounced with bovine pericardium)
1 |  |  | CCCCCCC(O)CO (centres unmarked) [1,2-octanediol] | 3.4 | 0 | 44.1 | 21.9 | 106.4 | 53.0 |  |  |  |  |  | 
2 |  |  | CCO [45% EtOH, ethanol] |  |  |  |  |  |  | 3.4 | 0.0 | significant reduction | 168 | 5 | 
3 | no significant effect | 85.6 | CN1CCCC1=O [NMP, N-methyl pyrolidinone] | 8.0 | 3.4 | 14.7 | 7.9 | 111.9 | 55.2 |  |  |  |  |  | significantly reduced
